The values below are quoted from earlier work in patent US20210085711A1 (Japan Tobacco Inc., priority 2017, published 2021).

In this data set the test system is patients. As to conditions: investigation up to the approval; cited from earlier work.

On to sodium ferrous citrate, for which the “expression rate of nausea and vomiting” value is recorded as “about 13%”.
